{"source": "paper PMC8143347", "about": "“Metabolism and Interspecies Variation of IMMH-010, a Programmed Cell Death Ligand 1 Inhibitor Prodrug” (Pharmaceutics, 2021)", "key": {"[1]": {"test": "Metabolism in human liver microsomes", "assay_type": "in vitro ADME", "settings": "NADPH-dependent", "description": "(§1) To compare the differences in IMMH-010 metabolism between the liver and intestine, IMMH-010 (10 μM) was incubated with rat liver and intestinal S9 homogenate protein (1 mg protein/mL) and with human liver and intestinal microsomes (0.2 mg protein/mL) in a final volume of 0.2 mL Tris-HCl buffer (50 mM, pH 7.4) containing 5 mM MgCl2. The incubations were performed in duplicate in the presence and absence of an NADPH regenerating system. After 2 min preincubation at 37 °C, reactions were initiated by the addition of IMMH-010 (10 μM). Incubations were terminated by acetonitrile at 0, 10, and 20 min. IMMH-010, YPD-29B, M2, and M3 were quantified by LC-MS/MS assay. Midazolam (10 μM, a substrate of CYP3A4) was set as the positive control."}, "[2]": {"tested_on": "cDNA-expressed human CYPs and FMOs", "test": "IMMH-010 metabolism by cDNA-expressed human CYPs and FMOs", "assay_type": "in vitro ADME", "settings": "IMMH-010 10 µM, 50 pmol enzyme, 30 min, NADPH", "description": "cDNA-expressed human CYPs were also used to investigate the enzymes mediating IMMH-010 metabolism. IMMH-010 (10 µM) was incubated individually with 50 pmol of 10 individual cDNA-expressed human CYPs (CYP1A1, CYP1A2, CYP2A6, CYP2B6, CYP2C9, CYP2C19, CYP2D6, CYP2E1, CYP2J2, or CYP3A4) and three cDNA-expressed human FMO enzymes (FMO1, FMO3, and FMO5) at 37 °C for 30 min. An NADPH regeneration system was added to initiate the reactions. Probe substrates of the CYPs were used as the positive controls. Incubations without NADPH served as the negative controls. All reactions were carried out in a final volume of 0.2 mL Tris-HCl buffer (50 mM, pH 7.4) containing 5 mM MgCl2 and conducted in triplicate. All incubations were terminated by 2 volumes of acetonitrile. After centrifugation at 14,000 rpm for 5 min, the samples were analyzed by LC-MS/MS."}, "[3]": {"test": "Metabolism in human liver S9 fractions", "assay_type": "in vitro ADME", "settings": "human, monkey, dog and rat liver S9 incubations of IMMH-010 10 μM", "description": "IMMH-010 metabolism was compared in human, monkey, dog, and rat liver S9 homogenates. IMMH-010 (10 μM) was incubated with liver S9 homogenate protein (0.5 mg protein/mL) and a reduced nicotinamide adenine dinucleotide phosphate (NADPH) regenerating system in a final volume of 0.2 mL Tris-HCl buffer (50 mM, pH 7.4) containing 5 mM MgCl2. The reactions were performed in triplicate. After 2 min of preincubation at 37 °C, reactions were initiated by the addition of IMMH-010 (10 μM). The samples were collected 0, 5, 10, and 20 min after incubation, 2 volumes of acetonitrile were added to terminate the reaction. After vortexing and centrifugation, IMMH-010, YPD-29B, M3, and M4 in the supernatant were analyzed by LC-MS/MS.\nAll statistics were calculated using GraphPad Prism 8.0 software (San Diego, CA, USA) designed for one-way ANOVA. Pharmacokinetic parameters were calculated with a non-compartmental analysis using WinNonlin Version 6.3 (Pharsight, Mountain View, CA, USA). ADMET predictor V10.0 (Simulations Plus, Inc., Lancaster, CA, USA) and Microsoft Excel (Microsoft, Redmond, WA, USA) were used to process the data (i.e., half-life (t1/2) and hepatic clearance (CLhep) determination). Data were expressed as means ± standard deviations (SD). Results were considered statistically significant if the p-value <0.05, <0.01 and <0.001."}, "[4]": {"test": "Identification of IMMH-010 metabolites in rat urine, bile and feces", "assay_type": "in vivo", "settings": "after oral IMMH-010 maleate 5 mg/kg", "description": "After oral administration of IMMH-010 maleate (5 mg/kg), two rats were housed in metabolic cages to collect urine and feces samples for 24 h. Feces samples were homogenized with methanol at 1:10 (w/v) and urine samples were diluted 10-fold in methanol. Additionally, two rats were bile duct cannulated under isoflurane anesthesia. After oral administration of IMMH-010 maleate (5 mg/kg), bile samples were collected over 0–2 h after dosing.\nLC-MS was performed using a Thermo Scientific Q Exactive HF hybrid quadrupole-Orbitrap mass spectrometer. Reverse-phase liquid chromatography was performed on a Zorbax C18 column (100 × 2.1 mm, 3.5 μm). Mobile phase A was 0.1% aqueous formic acid and mobile phase B was 0.1% formic acid in methanol. The mobile phase was delivered with the following gradient elution profile: 0 min, 10% B; 15 min, 40% B; 17–19 min, 100% B; 20–23 min, 10% B. The total runtime for each injection was 23 min. The flow rate was 0.3 mL/min, and the column oven was maintained at 30 °C.\nThe analysis was performed in full mass spectrometry with data-dependent tandem mass spectrometry (MS/dd-MS^2) mode. For a full mass spectrometry scan, the selected scan range was from m/z 100 to 500, the resolution was 70,000, and the automatic gain control (AGC) target was set to 1.0 × 10^6 with a maximum injection time (IT) of 100 ms. For the dd-MS^2 scan, the fragmentation mass spectra were recorded at a mass resolving power of 17,500 fwhm with a quadrupole isolation window of 1.5 m/z for precursor ions. The AGC target was 2.0 × 10^5 and the maximum IT was 50 ms.\nXcalibur 4.1 software (Thermo Fisher Scientific, San Jose, CA, USA) was used for instrument control and data processing. Compound Discover 2.0 software was used for metabolite identification."}, "[5]": {"test": "Metabolism in human intestinal microsomes", "assay_type": "in vitro ADME", "settings": "NADPH-dependent", "description": "as §1"}, "CES1": {"molecular_target": "T1, CES1 (Homo sapiens, UniProt P23141)", "T1 sequence (P23141 18-567)": "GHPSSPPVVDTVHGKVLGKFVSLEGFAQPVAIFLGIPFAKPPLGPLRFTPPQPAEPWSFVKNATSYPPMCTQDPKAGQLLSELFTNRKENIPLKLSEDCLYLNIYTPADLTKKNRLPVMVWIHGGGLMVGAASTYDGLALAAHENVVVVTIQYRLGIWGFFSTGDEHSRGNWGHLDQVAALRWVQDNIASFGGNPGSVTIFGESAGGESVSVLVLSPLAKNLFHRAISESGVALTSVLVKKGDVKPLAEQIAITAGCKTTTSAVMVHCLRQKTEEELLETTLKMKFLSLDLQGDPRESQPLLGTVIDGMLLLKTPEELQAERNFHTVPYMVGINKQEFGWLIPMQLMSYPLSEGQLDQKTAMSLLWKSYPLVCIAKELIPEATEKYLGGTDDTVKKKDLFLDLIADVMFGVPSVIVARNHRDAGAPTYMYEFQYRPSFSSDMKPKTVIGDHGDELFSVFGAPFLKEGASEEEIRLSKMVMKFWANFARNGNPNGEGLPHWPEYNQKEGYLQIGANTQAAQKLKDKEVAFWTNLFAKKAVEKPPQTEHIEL", "test": "Chemical inhibition of IMMH-010 hydrolysis in HLM, selective CES1 inhibitor", "assay_type": "in vitro ADME", "set-up": "tissue BD Gentest; host or cells: pooled mixed-gender human liver microsomes", "settings": "100 μM inhibitor, IMMH-010 10 µM, HLM 0.2 mg/mL, 15 min, vs no inhibitor group", "description": "(§2) Selective chemical inhibitors and recombinant human enzymes were used to investigate the esterase responsible for IMMH-010 metabolism in HLM. The selective CES1 and CES2 inhibitors were digitonin (100 μM) and telmisartan (50 μM), respectively. IMMH-010 (10 µM) was incubated with HLM (0.2 mg/mL) at 37 °C for 0 and 15 min in the presence of chemical inhibitors. Control samples were incubated without inhibitors."}, "[6]": {"test": "IMMH-010 stability in rat plasma", "assay_type": "in vitro ADME", "settings": "10 μM, after 1 h of incubation", "description": "(§3) IMMH-010 hydrolysis was investigated in human, monkey, rat, and mouse plasma. IMMH-010 (1 μM) was incubated in human, monkey, or dog plasma (0.2 mL) at 37 °C for 120 min. IMMH-010 (10 μM) was incubated in rat or mouse plasma (0.2 mL) at 4 °C for 60 min. The experiments were performed in triplicate. The reactions were initiated by the addition of IMMH-010 (10 μM). After incubation, the reactions were stopped by adding 2 volumes of ice-cold acetonitrile. After vortexing and centrifuging, the concentrations of IMMH-010 and YPD-29B in the supernatant were determined by liquid chromatography with tandem mass spectrometry (LC-MS/MS). The compound olmesartan (10 μM), a substrate of paraoxonase 1, was set as the positive control."}, "[7]": {"test": "IMMH-010 stability in human plasma", "assay_type": "in vitro ADME", "settings": "10 μM, after 1 h of incubation", "description": "as §3, with “IMMH-010 (1 μM) was incubated in human, monkey, or dog plasma (0.2 mL) at 37 °C for 120 min.” left out"}, "[8]": {"test": "IMMH-010 stability in monkey plasma", "assay_type": "in vitro ADME", "settings": "10 μM, after 1 h of incubation", "description": "as §3, with “IMMH-010 (1 μM) was incubated in human, monkey, or dog plasma (0.2 mL) at 37 °C for 120 min.” left out"}, "[9]": {"test": "IMMH-010 stability in mouse plasma", "assay_type": "in vitro ADME", "settings": "10 μM, after 1 h of incubation", "description": "as §3"}, "CES2": {"molecular_target": "T2, CES2 (Homo sapiens, UniProt O00748)", "T2 sequence (O00748 27-559)": "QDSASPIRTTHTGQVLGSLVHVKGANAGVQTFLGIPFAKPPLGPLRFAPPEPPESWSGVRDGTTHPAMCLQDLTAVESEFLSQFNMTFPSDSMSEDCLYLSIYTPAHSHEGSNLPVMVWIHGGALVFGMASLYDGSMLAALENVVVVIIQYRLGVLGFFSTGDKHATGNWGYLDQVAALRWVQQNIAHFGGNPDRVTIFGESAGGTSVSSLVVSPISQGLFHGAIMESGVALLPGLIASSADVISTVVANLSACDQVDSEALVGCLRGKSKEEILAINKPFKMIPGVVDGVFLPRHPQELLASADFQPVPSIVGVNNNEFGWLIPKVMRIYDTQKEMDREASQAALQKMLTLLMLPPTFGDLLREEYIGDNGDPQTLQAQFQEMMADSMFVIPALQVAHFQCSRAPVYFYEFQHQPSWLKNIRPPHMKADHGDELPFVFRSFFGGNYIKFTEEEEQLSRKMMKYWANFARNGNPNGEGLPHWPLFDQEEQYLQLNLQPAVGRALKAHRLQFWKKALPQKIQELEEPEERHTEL", "test": "Chemical inhibition of IMMH-010 hydrolysis in HLM, selective CES2 inhibitor", "assay_type": "in vitro ADME", "set-up": "tissue BD Gentest; host or cells: pooled mixed-gender human liver microsomes", "settings": "50 μM inhibitor, IMMH-010 10 µM, HLM 0.2 mg/mL, 15 min", "description": "as §2"}}, "note": "“Also recorded” adds a separate entry of the source.", "data": [{"smiles": "OCc1cc(Cl)c(OCc2cccc(-c3ccccc3)c2Br)cc1OCc1cccnc1", "note": "[M3]", "values": [{"measurement": "transformation ratio of IMMH-010 to this metabolite", "setting": "[1]", "value": "< 2", "unit": "%"}, {"measurement": "enzyme with the highest metabolic activity for formation of the metabolite", "setting": "[2]", "value": "CYP2D6"}, {"measurement": "amount of minor metabolite formed", "setting": "[3]", "value": "< 3", "unit": "%"}, {"measurement": "metabolite in rat feces and bile", "setting": "[4]", "value": "detected"}, {"measurement": "transformation ratio of IMMH-010 to this metabolite", "setting": "[5]", "value": "< 2", "unit": "%"}]}, {"smiles": "C[C@@H]1CC[C@@]2(OC1)O[C@H]1[C@@H](O)[C@H]3[C@@H]4CC[C@H]5C[C@@H](O[C@@H]6O[C@H](CO)[C@H](O[C@@H]7O[C@H](CO)[C@@H](O)[C@H](O[C@@H]8OC[C@@H](O)[C@H](O)[C@H]8O)[C@H]7O[C@@H]7O[C@H](CO)[C@H](O)[C@H](O[C@@H]8O[C@H](CO)[C@@H](O)[C@H](O)[C@H]8O)[C@H]7O)[C@H](O)[C@H]6O)[C@H](O)C[C@]5(C)[C@H]4CC[C@]3(C)[C@H]1[C@@H]2C", "note": "[digitonin]", "values": [{"measurement": "inhibition of the formation of YPD-29B", "setting": "CES1", "value": 35.8, "unit": "%"}]}, {"smiles": "CCCc1nc(C(C)(C)O)c(C(=O)O)n1Cc1ccc(-c2ccccc2-c2nnn[nH]2)cc1", "note": "[olmesartan, reference compound]", "values": [{"measurement": "decrease of control compound in plasma", "setting": "[6]", "value": "more than 80%"}, {"measurement": "decrease of control compound in plasma", "setting": "[7]", "value": "more than 80%"}, {"measurement": "decrease of control compound in plasma", "setting": "[8]", "value": "more than 80%"}, {"measurement": "decrease of control compound in plasma", "setting": "[9]", "value": "more than 80%"}]}, {"smiles": "CCCc1nc2c(C)cc(-c3nc4ccccc4n3C)cc2n1Cc1ccc(-c2ccccc2C(=O)O)cc1", "note": "[telmisartan]", "values": [{"measurement": "inhibition of the formation of YPD-29B", "setting": "CES2", "value": "did not inhibit; also recorded: no inhibition"}]}]}
